In ChEMBL document CHEMBL4118082 (Eur J Med Chem, 2017):
Values after ≈ are worked out from the molar mass of the structure shown.

Tests used:
Type in all cases: functional
[1] = test system: Mycobacterium tuberculosis; assay: Growth inhibition of Mycobacterium tuberculosis H37Ra Lehmann and Neumann ATCC 25177 harboring pSMT1 luciferase reporter at 10 uM after 6 days by luminescence based serial dilution method relative to control; settings: H37Ra Lehmann and Neumann ATCC 25177, 144 h, read-out: GI
[2] = test system: Mycobacterium tuberculosis; assay: Growth inhibition of Mycobacterium tuberculosis H37Ra Lehmann and Neumann ATCC 25177 harboring pSMT1 luciferase reporter at 1 uM after 6 days by luminescence based serial dilution method relative to control; settings: H37Ra Lehmann and Neumann ATCC 25177, 144 h, read-out: GI
[3] = test system: Mycobacterium tuberculosis; assay: Growth inhibition of Mycobacterium tuberculosis H37Ra Lehmann and Neumann ATCC 25177 harboring pSMT1 luciferase reporter at 0.1 uM after 6 days by luminescence based serial dilution method relative to control; settings: H37Ra Lehmann and Neumann ATCC 25177, 144 h, read-out: GI
[4] = test system: Mycobacterium tuberculosis; assay: Antimycobacterial activity against Mycobacterium tuberculosis H37Ra Lehmann and Neumann ATCC 25177 harboring pSMT1 luciferase reporter after 6 days by luminescence based serial dilution method; settings: H37Ra Lehmann and Neumann ATCC 25177, 144 h

Row | Structure (SMILES) | inhibition of growth at 10 µM [1] | inhibition of growth at 1 µM [2] | inhibition of growth at 0.1 µM [3] | MIC90 [4]
1 | CC(=O)Oc1cc(=O)[nH]c2ccccc12 | 35.4% | 21.1% | 14.5% | 
2 | O=c1c(-c2ccccc2)c(O)c2ccccc2n1-c1ccccc1 | 98.3% | 53.7% | 30.1% | 6.4 µM (≈ 2.01 µg/mL)
3 | Cn1c(=O)c(-c2ccccc2)c(O)c2ccccc21 | 87.2% | 49.5% | 29.8% | 
4 | Oc1nc2ccccc2c(O)c1Cc1ccccc1 | 53.5% | 40.2% | 7.5% | 
5 | CCCc1c(O)c2ccccc2n(-c2ccccc2)c1=O | 56.6% | 46.3% | 10.4% | 
6 | CCn1c(=O)c(-c2ccccc2)c(O)c2ccccc21 | 8.2% | 0% | 0% | 
7 | COc1cccc2c(O)c(-c3ccccc3)c(O)nc12 | 95% | 47.5% | 42.5% | 7.9 µM (≈ 2.11 µg/mL)
8 | Cc1c(O)c2ccccc2n(-c2ccccc2)c1=O | 74.5% | 48.5% | 36% | 
9 | Oc1nc2ccccc2c(O)c1-c1ccccc1 | 92.4% | 59.2% | 56% | 8.5 µM (≈ 2.02 µg/mL)
10 | CC(=O)Oc1c(-c2ccccc2)c(=O)[nH]c2ccc(F)cc12 | 99.2% | 38% | 31% | 3.8 µM (≈ 1.13 µg/mL)
11 | CCc1c(O)c2cc(OC)ccc2[nH]c1=O | 68.2% | 56.3% | 0% | 
12 | Cc1cc2[nH]c(=O)c(-c3ccccc3)c(O)c2cc1C | 90.7% | 48.3% | 32.5% | 9.2 µM (≈ 2.44 µg/mL)
13 | CCc1c(OC(C)=O)c2ccc(OC)cc2[nH]c1=O | 28.6% | 15.3% | 0% | 
14 | CCc1c(O)c2ccccc2n(-c2ccccc2)c1=O | 25.6% | 34.8% | 22.5% | 
15 | CCc1c(O)c2ccc(O)cc2[nH]c1=O | 49.4% | 34.3% | 25.6% | 
16 | CCc1c(OC(C)=O)c2cccc(OC)c2[nH]c1=O | 31.2% | 13.3% | 0% | 
17 | O=c1c(Cc2ccccc2)c(O)c2ccccc2n1Cc1ccccc1 | 49.5% | 38.8% | 24.8% | 
18 | COc1ccc2[nH]c(=O)c(-c3ccccc3)c(OC(C)=O)c2c1 | 79.6% | 43.2% | 22.5% | 
19 | CCc1c(OC(C)=O)c2ccccc2[nH]c1=O | 29.4% | 9.4% | 3.5% | 
20 | COc1cccc2c(OC(C)=O)c(-c3ccccc3)c(=O)[nH]c12 | 76.3% | 32.5% | 8.9% | 
21 | O=c1[nH]c2c(O)cccc2c(O)c1-c1ccccc1 | 95.3% | 67.1% | 60% | 8.3 µM (≈ 2.1 µg/mL)
22 | CCc1c(O)c2ccc(OC)cc2[nH]c1=O | 60.8% | 36% | 23.7% | 
23 | O=c1[nH]c2ccc(F)cc2c(O)c1-c1ccccc1 | 99.5% | 42.6% | 35.1% | 3.2 µM (≈ 0.817 µg/mL)
24 | CCCCc1c(O)c2ccccc2n(-c2ccccc2)c1=O | 47.3% | 46.3% | 34.4% | 
25 | CCc1c(O)c2cc(F)ccc2[nH]c1=O | 57.3% | 51.3% | 40% | 
26 | CCc1c(O)c2c(C)ccc(C)c2[nH]c1=O | 86.2% | 46.4% | 16.9% | 
27 | CCc1c(O)c2ccccc2[nH]c1=O | 98.6% | 78.2% | 59.2% | 

Row | Structure (SMILES) | inhibition of growth at 10 µM [1] | inhibition of growth at 1 µM [2] | inhibition of growth at 0.1 µM [3] | MIC90 [4]
28 | COc1ccc2[nH]c(=O)c(-c3ccccc3)c(O)c2c1 | 90.8% | 24.5% | 9.4% | 8.7 µM (≈ 2.33 µg/mL)
29 | CCCCc1c(O)c2ccccc2n(C)c1=O | 23.9% | 10.5% | 0% | 
30 | CCCCc1c(O)c2cc(OC)cc(OC)c2[nH]c1=O | 62.6% | 10.7% | 0% | 
31 | O=c1[nH]c2ccc(O)cc2c(O)c1-c1ccccc1 | 95.1% | 52.1% | 32.3% | 8.3 µM (≈ 2.1 µg/mL)
32 | CCCCc1c(O)c2c(Cl)ccc(C)c2[nH]c1=O | 59.1% | 38.7% | 30% | 
33 | Cc1ccc2[nH]c(=O)c(-c3ccccc3)c(O)c2c1 | 92.3% | 51.2% | 36.2% | 8 µM (≈ 2.01 µg/mL)
34 | O=c1c(Cc2ccccc2)c(O)c2ccccc2n1-c1ccccc1 | 56.3% | 54.7% | 20.3% | 
35 | CCc1c(OC(C)=O)c2cc(F)ccc2[nH]c1=O | 44.5% | 14% | 0% | 
36 | CCc1c(O)c2cccc(OC)c2[nH]c1=O | 71% | 66.4% | 65.8% | 
37 | Cc1c(O)c2ccccc2[nH]c1=O | 55.5% | 46.6% | 43.6% | 6.8 µM (≈ 1.19 µg/mL)
38 | COc1ccc2c(OC(C)=O)c(-c3ccccc3)c(=O)[nH]c2c1 | 81.2% | 39.7% | 20.9% | 
39 | CCc1c(O)c2c(Cl)ccc(C)c2[nH]c1=O | 55.1% | 48.8% | 33.3% | 
40 | O=c1[nH]c2cc(O)ccc2c(O)c1-c1ccccc1 | 96.3% | 61.7% | 53.7% | 8.2 µM (≈ 2.08 µg/mL)
41 | CCCc1c(O)c2cc(F)ccc2[nH]c1=O | 78.2% | 38.5% | 13.2% | 
42 | COc1ccc2c(O)c(-c3ccccc3)c(=O)[nH]c2c1 | 98.2% | 74.4% | 56.5% | 9.1 µM (≈ 2.43 µg/mL)
43 | CCCCc1c(O)c2cc(Cl)ccc2[nH]c1=O | 64.8% | 35.4% | 21.6% | 
44 | Cc1c(O)c2ccccc2n(C)c1=O | 83.8% | 32.9% | 4% | 
45 | O=c1c(-c2ccccc2)c(O)c2ccccc2n1Cc1ccccc1 | 71.5% | 42.4% | 31.2% | 
46 | CCc1c(OC(C)=O)c2cc(OC)ccc2[nH]c1=O | 27.8% | 10.1% | 0% | 
47 | CCCCc1c(O)c2ccccc2n(Cc2ccccc2)c1=O | 33.2% | 25.3% | 20.9% | 
48 | CC(=O)Oc1c(-c2ccccc2)c(=O)[nH]c2ccccc12 | 72.3% | 35.4% | 10.9% | 
49 | CC(=O)Oc1c(C)c(=O)[nH]c2ccccc12 | 45.2% | 31.8% | 19.2% | 
50 | CC(C)c1c(O)c2ccccc2[nH]c1=O | 69.3% | 47.4% | 42.5% | 
51 | CC12CCC(c3c(O)c(-c4ccccc4)c(=O)n(-c4ccccc4)c31)C2(C)C (racemic) | 12.5% | 8.1% | 0% | 
52 | CCCCc1c(O)c2c(n(-c3ccccc3)c1=O)C1(C)CCC2C1(C)C (racemic) | 7.5% | 1.2% | 0% | 
53 | NNC(=O)c1ccncc1 [ISONIAZID] |  |  |  | 0.3 µM (≈ 0.0411 µg/mL)
54 | CO[C@H]1/C=C/O[C@@]2(C)Oc3c(C)c(O)c4c(O)c(c(/C=N/N5CCN(C)CC5)c(O)c4c3C2=O)NC(=O)/C(C)=C\C=C\[C@H](C)[C@H](O)[C@@H](C)[C@@H](O)[C@@H](C)[C@H](OC(C)=O)[C@@H]1C [RIFAMPIN] |  |  |  | 0.1 µM (≈ 0.0823 µg/mL)
